The source of these data is patent US20060110385A1, “Means and methods for diagnosing and treating affective disorders” (Affectis Pharmaceuticals AG, priority 2003, published 2006).

Data set [1] concerns DBA/201a mouse strain. Description: Porsolt's forced swim test after intrahippocampal BzATP. Type of data set: in vivo. The note with it: 50 μM BzATP, 24 hours after injection. An excerpt:
In the present example, the P2X7R agonist was directly injected into the hippocampus of mice. However, a P2X7R agonist agent or compound could also be delivered orally, subcutaneously, intravenously, intra-arterial, intranodal, intramedullary, intrathecal, intraventricular, intranasally, intrabronchial, transdermally, intrarectally, intraperitoneally, intramuscularly, intrapulmonary, vaginally, rectally, or intraocularly.
Four months old male mice were bilaterally implanted with guide cannulae (23 gauge, length 8 mm) by means of a stereotactic instrument (David Kopf Instruments). The coordinates, in relation to bregma, were −2.0 mm posterior, ±1.0 mm lateral, and −1.0 mm ventral. After surgery, the mice were allowed to recover for 10 to 12 days. […] Injections were performed using a 9 mm-30 gauge needle inserted into the guide cannulae and connected via tubing to a 10 μl Hamilton syringe.
The forced swim test is a standard test that measures primary stress-induced reductions in avoidance or escape, termed behavioural despair. The test is used to determine the effectiveness of antidepressants, test new pharmaceutical compounds and validate animal models of depression (Porsolt et al., Arch. Int. Pharmacodym. 229 (1977), 327-336; Porsolt, Rev. Neurosci. 11 (2000), 53-58; Rénéric et al., Behav. Brain Res. 136 (2002), 521-532; Page et al., Psychopharmacology 165 (2003), 194-201; Kelliher et al., Psychoneuroendocrinology 28 (2003), 332-347). The test consists of placing a mouse for a period of 5 minutes into a glass cylinder containing water. Under such circumstances, the mouse cannot touch the bottom of the cylinder and is thus forced to swim. Time, latency and frequency of struggling versus floating are scored as behavioural parameters. […] Increased struggling (i.e. active attempts to escape) indicates active coping behaviour that can be interpreted as an improvement of depression-like symptoms. For example, treatment with serotonergic antidepressants reduce the total time spent floating (Borsini, Neurosci. Biobehav. Rev. 19 (1995), 377-395; Redrobe and Bourin, Psychopharmacology 138 (1998), 198-206, and in parallel increases the time of active behaviour (i.e. swimming or struggling; Lucki et al., Psychopharmacology 155 (2001), 315-322).

Data set [2] has as its system mice. Briefly: Open field test (locomotor activity) after BzATP. The note with it: 50 μM BzATP, 24 hours after injection, 30 minutes. Type of data set: in vivo, mouse.
Description: Locomotor activity was monitored for a period of 30 minutes using a video camera. Overall distance travelled by the animals during the testing period was then analysed by means of VideoMot2 computer software (TSE GmbH, Bad Homburg).
In data set [3] the target is T1, P2X7R (Homo sapiens, UniProt Q99572).
T1 sequence (Q99572 1-595): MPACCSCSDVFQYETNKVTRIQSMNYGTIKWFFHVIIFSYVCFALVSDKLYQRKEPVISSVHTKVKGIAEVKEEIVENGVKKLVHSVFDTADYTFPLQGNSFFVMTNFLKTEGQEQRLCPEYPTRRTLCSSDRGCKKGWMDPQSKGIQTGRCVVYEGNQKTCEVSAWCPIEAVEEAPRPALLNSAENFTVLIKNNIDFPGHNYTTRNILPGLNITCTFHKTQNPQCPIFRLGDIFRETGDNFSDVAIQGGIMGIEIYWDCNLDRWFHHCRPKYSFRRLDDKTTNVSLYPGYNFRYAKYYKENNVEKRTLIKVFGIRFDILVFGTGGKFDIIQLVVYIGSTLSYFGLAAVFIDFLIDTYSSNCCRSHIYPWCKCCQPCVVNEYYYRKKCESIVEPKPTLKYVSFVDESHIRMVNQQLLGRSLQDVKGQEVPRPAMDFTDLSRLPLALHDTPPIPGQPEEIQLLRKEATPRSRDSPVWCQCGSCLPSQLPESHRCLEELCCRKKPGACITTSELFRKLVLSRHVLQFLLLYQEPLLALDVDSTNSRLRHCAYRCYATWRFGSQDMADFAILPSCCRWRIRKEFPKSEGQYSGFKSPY
The note with it: dose response curve, Y-axis ion current; cited from earlier work.

Setting [4] is: 1 μl each side, not supported statistically.
Where [5] appears, read: 1 μl each side, statistically significant.

On to “2′-3′-O-(4-Benzoylbenzoyl)adenosine 5′-triphosphate [BzATP]”, for which, in data set [1] (1 μl each side of hippocampus, statistically significant), the time of struggling result is “increase”. In data set [1] (setting [4]), the frequency of struggling entry is given as “increase”, the latency of struggling result is given as “decrease” and the time of floating result is “decrease”. In data set [1] (setting [5]), the frequency of floating result is on record as “decrease” and the latency of floating entry is reported as “increase”. In data set [2], the “locomotor activity (overall distance travelled)” value is given as “No difference in locomotor activity”. Moreover, the EC50 (in general, the concentration that produces a half-maximal response) in data set [3] is 8 µM.
